Results taken from ChEMBL document CHEMBL4823252 (J Med Chem, 2021).
Activity calls are given as the source filed them. The rule behind the calls is not given here.

Key:
MOLM-13 [1] = assay: Induction of cell cycle arrest in human MOLM-13 cells assessed as accumulation at G2/M phase at 10 nM incubated for 24 hrs by flow cytometry (reference value: […]); assay type: functional
[2] = molecular target: Vascular endothelial growth factor receptor 2 (Homo sapiens, UniProt P35968); assay: Inhibition of VEGFR2 (unknown origin) incubated for 30 mins in presence of ATP by mobility shift assay
[3] = Oral bioavailability in Sprague-Dawley rat at 10 mg/kg; assay type: ADME, organism-based; conditions: in vivo
[4] = tested on: Receptor-type tyrosine-protein kinase FLT3 (Homo sapiens), P36888 [R834Q]; assay: Binding affinity to FLT3 R834Q mutant (unknown origin) at 1000 nM relative to control
[5] = tested on: Receptor-type tyrosine-protein kinase FLT3 (Homo sapiens), P36888 [N841I]; assay: Binding affinity to FLT3 N841I mutant (unknown origin) at 1000 nM relative to control
[6] = molecular target: Receptor-type tyrosine-protein kinase FLT3 (Homo sapiens) (UniProt P36888); assay: Inhibition of FLT3 in human MV4-11 cells assessed as reduction in ERK phosphorylation at 10 uM incubated for 2 hrs by Western blot analysis; assay type: cell-based
[7] = molecular target: Receptor-type tyrosine-protein kinase FLT3 (Homo sapiens) (UniProt P36888); assay: Inhibition of FLT3 in human MV4-11 cells assessed as reduction in autophosphorylation at tyr589/591 residue incubated for 2 hrs by Western blot analysis; assay type: cell-based
[8] = molecular target: T1, Receptor-type tyrosine-protein kinase FLT3 (Homo sapiens, UniProt P36888); assay: Inhibition of FLT3 (unknown origin) incubated for 30 mins in presence of ATP by mobility shift assay
T1 sequence (P36888 whole entry): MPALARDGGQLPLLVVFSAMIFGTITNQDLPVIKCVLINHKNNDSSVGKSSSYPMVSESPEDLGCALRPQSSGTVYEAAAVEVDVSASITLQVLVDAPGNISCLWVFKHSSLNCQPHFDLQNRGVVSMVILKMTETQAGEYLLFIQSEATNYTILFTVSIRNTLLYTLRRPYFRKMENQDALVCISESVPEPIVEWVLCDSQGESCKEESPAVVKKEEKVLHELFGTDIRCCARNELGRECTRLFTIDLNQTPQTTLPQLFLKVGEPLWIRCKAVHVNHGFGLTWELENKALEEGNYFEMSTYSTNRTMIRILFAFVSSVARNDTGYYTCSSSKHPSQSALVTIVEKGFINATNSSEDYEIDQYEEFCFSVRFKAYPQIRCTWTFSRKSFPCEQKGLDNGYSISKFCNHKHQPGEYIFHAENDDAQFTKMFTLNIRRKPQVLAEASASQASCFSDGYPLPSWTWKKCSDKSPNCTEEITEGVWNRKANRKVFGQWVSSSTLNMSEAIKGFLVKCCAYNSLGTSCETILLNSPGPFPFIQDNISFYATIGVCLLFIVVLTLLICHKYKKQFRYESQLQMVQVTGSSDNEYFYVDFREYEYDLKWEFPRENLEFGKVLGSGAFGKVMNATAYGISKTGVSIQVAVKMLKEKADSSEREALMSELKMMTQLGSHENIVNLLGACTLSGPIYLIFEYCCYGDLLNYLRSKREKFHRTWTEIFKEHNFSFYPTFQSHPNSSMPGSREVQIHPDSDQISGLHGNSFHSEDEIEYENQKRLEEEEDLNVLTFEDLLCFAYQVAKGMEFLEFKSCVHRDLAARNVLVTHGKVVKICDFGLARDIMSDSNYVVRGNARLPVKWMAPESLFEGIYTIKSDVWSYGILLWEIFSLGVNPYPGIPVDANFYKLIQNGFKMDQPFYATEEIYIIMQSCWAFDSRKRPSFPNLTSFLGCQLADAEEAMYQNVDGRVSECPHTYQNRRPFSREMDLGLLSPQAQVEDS

MDA-MB-231 = assay: Antiproliferative activity against human MDA-MB-231 cells measured after 72 hrs by CCK8 assay; assay type: functional, cell-based; conditions: MDA-MB-231, 72 h
Mus musculus = assay: Induction of tumor recurrence mouse xenografted with human MOLM-13 cells at 10 to 40 mg/kg, po; assay type: functional, organism-based; conditions: dose 10-40 mg/kg
[9] = AUC (0 to last) in Sprague-Dawley rat at 1 mg/kg, iv; assay type: ADME, organism-based; parameters: route intravenous, time 0 - last, dose 1 mg/kg; conditions: in vivo
[10] = Half life in Sprague-Dawley rat at 10 mg/kg, po; assay type: ADME, organism-based; conditions: in vivo
KG-1 = assay: Antiproliferative activity against human KG1 cells measured after 72 hrs by CCK8 assay; assay type: functional, cell-based; conditions: KG-1, 72 h
[11] = MRT (0 to last) in Sprague-Dawley rat at 1 mg/kg, iv; assay type: ADME, organism-based; conditions: in vivo
MOLM-13 [12] = assay: Antitumor activity against human MOLM-13 cells xenografted in po dosed mouse assessed as induction of apoptosis administered for 16 days measured once for every 2 days by caspase3 staining based immunohistochemical analysis; assay type: functional, organism-based; conditions: time 16.0 day

Sequence of Vascular endothelial growth factor receptor 2 (P35968 whole entry): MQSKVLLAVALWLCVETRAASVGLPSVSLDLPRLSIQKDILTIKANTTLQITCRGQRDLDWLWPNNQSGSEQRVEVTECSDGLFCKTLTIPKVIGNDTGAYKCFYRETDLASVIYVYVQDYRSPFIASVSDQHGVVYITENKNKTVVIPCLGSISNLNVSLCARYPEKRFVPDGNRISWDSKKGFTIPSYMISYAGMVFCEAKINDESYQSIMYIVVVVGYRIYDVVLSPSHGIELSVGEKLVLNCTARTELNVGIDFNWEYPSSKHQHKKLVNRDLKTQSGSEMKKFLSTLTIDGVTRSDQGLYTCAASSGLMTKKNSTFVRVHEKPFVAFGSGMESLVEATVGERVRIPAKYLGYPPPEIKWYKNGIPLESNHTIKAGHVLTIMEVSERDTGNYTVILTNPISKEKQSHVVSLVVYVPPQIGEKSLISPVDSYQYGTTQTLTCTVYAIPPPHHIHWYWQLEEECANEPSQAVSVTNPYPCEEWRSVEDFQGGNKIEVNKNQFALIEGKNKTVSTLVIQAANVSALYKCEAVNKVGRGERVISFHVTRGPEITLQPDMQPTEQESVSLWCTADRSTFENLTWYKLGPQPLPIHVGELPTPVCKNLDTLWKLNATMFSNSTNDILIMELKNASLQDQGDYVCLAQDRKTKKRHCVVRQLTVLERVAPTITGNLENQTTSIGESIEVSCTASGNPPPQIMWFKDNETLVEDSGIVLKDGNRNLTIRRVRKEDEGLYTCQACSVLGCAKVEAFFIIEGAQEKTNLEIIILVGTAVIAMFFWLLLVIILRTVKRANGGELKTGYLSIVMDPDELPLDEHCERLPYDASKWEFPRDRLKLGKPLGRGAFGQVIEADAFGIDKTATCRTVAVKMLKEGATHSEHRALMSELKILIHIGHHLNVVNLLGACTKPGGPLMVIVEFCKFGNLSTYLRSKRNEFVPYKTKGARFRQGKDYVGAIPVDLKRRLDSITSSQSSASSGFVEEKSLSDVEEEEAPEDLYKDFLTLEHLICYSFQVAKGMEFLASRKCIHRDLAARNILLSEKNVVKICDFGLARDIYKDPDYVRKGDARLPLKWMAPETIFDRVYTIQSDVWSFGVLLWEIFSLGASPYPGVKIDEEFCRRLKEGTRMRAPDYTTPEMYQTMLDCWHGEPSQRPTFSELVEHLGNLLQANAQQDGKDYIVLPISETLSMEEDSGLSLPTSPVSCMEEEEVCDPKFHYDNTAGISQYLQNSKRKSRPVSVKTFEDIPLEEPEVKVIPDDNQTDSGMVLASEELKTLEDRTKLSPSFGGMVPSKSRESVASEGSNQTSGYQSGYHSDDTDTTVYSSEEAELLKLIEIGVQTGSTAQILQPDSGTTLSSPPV

Cc1c(NC(=O)CCN2CCCC2)c[nH]c1/C=C1\C(=O)Nc2ccc(F)cc21
Activity (MOLM-13 [1]): 2.32% | IC50 [2]: 137 nM | bioavailability [3]: 73.6% | Activity [4]: Active | Activity [5]: Active | Activity [6]: Active | Activity [7]: Dose-Dependent Effect | IC50 [8]: 1.8 nM | IC50 (MDA-MB-231): 1830 nM | Activity (Mus musculus): inactive | AUC(0-t) [9]: 2880 ng·h/mL | half-life [10]: 6.1 h | IC50 (KG-1): 1100 nM | MRT last [11]: 4 h | Activity (MOLM-13 [12]): Dose-Dependent Effect
